The values below come from ChEMBL document CHEMBL1201862, “PubChem BioAssay data set” (2004).

Test systems include EKVX; HCT-15; A549; UO-31; SK-MEL-5; SK-MEL-28; K562; CAKI-1; HCC 2998; COLO 205; RPMI-8226; T47D; LOX IMVI; NCI-H522; HOP-92; TK-10; IGROV-1; NCI-H226; HOP-62.
Test in all cases: DTP human tumour cell line panel, 48 h

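Step 1: Grow cells in 96-well plates. Step 2: Expose to compound for 48 hours at 5 concentrations. Step 3: Interpolate endpoints linearly; if unreached, use highest concentration. At the GI50, growth is halved.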 Active and inactive are the calls of the source. Cut-off read from the data, not from the text of the source: active = GI50 up to about 1.1 µM and inactive = higher. Bounds are passed on as bounds.

In general, GI50 refers to the concentration at which growth is held to half of that of the control. For the compound `Cc1cccc(/C=N\NC(=S)N2CCCCC2)n1`, the GI50 with EKVX is 0.673 µM (active); with HCT-15, 0.0371 µM; in the experiment on A549, 0.158 µM (active); in the experiment with UO-31, 0.216 µM (active); with SK-MEL-5, 0.0229 µM (active); in the experiment on SK-MEL-28, 0.532 µM (active). For the same compound, the GI50 in the experiment with K562 is < 0.01 µM (active); in the experiment on CAKI-1 it was 0.126 µM (active); in the experiment with HCC 2998 it was 9.77 µM (inactive); in the experiment with COLO 205 it was < 0.01 µM (active); with RPMI-8226 it was 0.0128 µM (active); with T47D, < 0.01 µM (active). Also, the GI50 is 0.0681 µM (active) with LOX IMVI; < 0.01 µM (active) in the experiment on NCI-H522; 0.474 µM (active) in the experiment with HOP-92; 0.0156 µM (active) with TK-10; < 0.01 µM (active) with IGROV-1; 0.184 µM (active) in the experiment with NCI-H226. In addition, the concentration for 50% growth inhibition (GI50) with HOP-62 was 0.0776 µM (active).

On to `CC(C)(C)N1NC1C1NN1C(C)(C)C` (stereo not drawn), for which the GI50 was > 100 µM (inactive) with EKVX; over 100 µM with HCT-15; > 100 µM (inactive) with A549; > 100 µM (inactive) in the experiment on UO-31; > 100 µM (inactive) with SK-MEL-5; > 100 µM (inactive) in the experiment with SK-MEL-28. For the same compound, the GI50 in the experiment with K562, in the experiment on CAKI-1, in the experiment with HCC 2998, in the experiment on COLO 205, with RPMI-8226 and with T47D was > 100 µM (inactive) in each case. For the same compound, the GI50 in the experiment on LOX IMVI, in the experiment on NCI-H522, in the experiment with HOP-92, in the experiment with TK-10, with IGROV-1 and in the experiment with NCI-H226 was > 100 µM (inactive) in each case. The GI50 in the experiment on HOP-62 was > 100 µM (inactive).

Take `c1ccc(-c2sc(-c3ccccc3)c3c2C(c2ccccc2)c2c(-c4ccccc4)sc(-c4ccccc4)c2C3c2ccccc2)cc1` (stereo not drawn): the GI50 in the experiment on EKVX was > 100 µM (inactive); in the experiment on HCT-15, over 100 µM; in the experiment on A549 it was > 100 µM (inactive); in the experiment with UO-31, > 100 µM (inactive); with SK-MEL-5, > 100 µM (inactive); in the experiment with SK-MEL-28, > 100 µM (inactive). In addition, the GI50 in the experiment on K562, with CAKI-1, in the experiment on HCC 2998, in the experiment with COLO 205, in the experiment on RPMI-8226 and in the experiment with LOX IMVI was > 100 µM (inactive) in each case. Also, the GI50 with NCI-H522, in the experiment with HOP-92, in the experiment on TK-10, with IGROV-1, in the experiment on NCI-H226 and in the experiment with HOP-62 was > 100 µM (inactive) throughout.

Turning to `COc1cc(C=O)cc(/C=N/c2ccccn2)c1O`, the GI50 in the experiment with EKVX is 23.4 µM (inactive); in the experiment with HCT-15, 29 µM; with A549, 32 µM (inactive); in the experiment on UO-31, 3.34 µM (inactive); with SK-MEL-5, 2.39 µM (inactive); in the experiment on SK-MEL-28, 3.32 µM (inactive). Moreover, the GI50 with K562 was 61.1 µM (inactive); in the experiment with CAKI-1, 2.94 µM (inactive); with HCC 2998, 46.1 µM (inactive); with COLO 205, 7.08 µM (inactive); in the experiment with RPMI-8226, 4.85 µM (inactive); with T47D it was 53.3 µM (inactive). The GI50 with LOX IMVI was 14.1 µM (inactive); in the experiment on HOP-92, 2.72 µM (inactive); in the experiment on TK-10, 79.4 µM (inactive); in the experiment with NCI-H226 it was 4.84 µM (inactive); in the experiment with HOP-62, 16 µM (inactive).
